According to patent US10246420B2, “Pyrazole derivatives” (BAYER CROPSCIENCE AKTIENGESELLSCHAFT, priority 2014, dated 2019):

Assay: Log P by HPLC on reversed phase columns (EEC directive 79/831 Annex V.A8)
Format: physicochemical
Settings: not given
Protocol: Measurement of Log P values was performed according to EEC directive 79/831 Annex V.A8 by HPLC (High Performance Liquid Chromatography) on reversed phase columns with the following methods:
[^a] Log P value is determined by measurement of LC-UV, in an acidic range, with 0.1% formic acid in water and acetonitrile as eluent (linear gradient from 10% acetonitrile to 95% acetonitrile).
[^b] Log P value is determined by measurement of LC-UV, in a neutral range, with 0.001 molar ammonium acetate solution in water and acetonitrile as eluent (linear gradient from 10% acetonitrile to 95% acetonitrile).
[^c] Log P value is determined by measurement of LC-UV, in an acidic range, with 0.1% phosphoric acid and acetonitrile as eluent (linear gradient from 10% acetonitrile to 95% acetonitrile).
Calibration was done with straight-chain alkan-2-ones (with 3 to 16 carbon atoms) with known Log P values (measurement of Log P values using retention times with linear interpolation between successive alkanones). Lambda-max-values were determined using UV-spectra from 200 nm to 400 nm and the peak values of the chromatographic signals.

Compound | LogP [a] | LogP [b] | LogP [c]
C=CCOc1ccc(-c2c(C)nn(C)c2Nc2c(F)cc(OCC=C)cc2F)c(F)c1 [Example I-23] | 3.62^[a] |  | 
C#CCOc1cc(F)c(Nc2c(-c3c(F)cc(OC)cc3F)c(C)nn2C)c(F)c1 [Example I-62] | 2.85^[a] |  | 
C=CCOc1ccc(Nc2c(-c3ccc(F)cc3Cl)c(C)nn2C)c(Cl)c1 [Example I-41] | 4.23^[a]; | 4.20^[b] | 
C#CCOc1cc(F)c(Nc2c(-c3ccc(Cl)cc3Cl)c(C)nn2C)c(F)c1 [Example I-09] | 3.44^[a] |  | 
C=CCOc1ccc(F)c(Nc2c(-c3ccc(F)cc3Cl)c(C)nn2C)c1 [Example I-37] | 3.78^[a]; | 3.73^[b]; | 3.70^[c]
C=CCOc1cc(F)c(N(C)c2c(-c3ccc(F)cc3Cl)c(C)nn2C)c(F)c1 [Example I-04] | 4.40^[a] |  | 
C=CCOc1cc(C)ccc1Nc1c(-c2ccc(Cl)cc2Cl)c(C)nn1C [Example I-57] | 4.85^[a] |  | 
C#CCOc1cc(F)cc(F)c1NC(=S)C(C(C)=O)c1ccc(F)cc1Cl (stereo not drawn) [Z-ix-03] | 3.65^[a] |  | 
C#CCOc1cccc(Cl)c1N=C=S [Z-ii-14] | 3.86^[a] |  | 
C#CCOc1cc(C)ccc1Nc1c(-c2ccc(F)cc2Br)c(C)nn1C [Example I-47] | 3.87^[a] |  | 
C=CCOc1cc(F)c(Nc2c(-c3ccccc3F)c(C)nn2C)c(F)c1 [Example I-13] | 3.22^[a] |  | 
C#CCOc1cc(F)c(Nc2c(-c3ccc(Cl)cc3Cl)c(C)nn2C)cc1F [Example I-39] | 3.70^[a]; | 3.62^[b]; | 3.60^[c]
C#CCOc1cc(F)cc(F)c1Nc1c(-c2ccc(Cl)nc2)c(C)nn1C [Example I-25] | 2.69^[a]; | 2.63^[b] | 
C=CCOc1cc(F)c(Nc2c(-c3ccc(F)cc3F)c(C)nn2C)c(F)c1 [Example I-15] | 3.33^[a] |  | 
C#CCOc1cc(F)c(Nc2c(-c3cc(OC)cc(OC)c3)c(C)nn2C)c(F)c1 [Example I-10] | 2.73^[a] |  | 
C=CCOc1ccc(F)cc1Nc1c(-c2ccc(F)cc2Br)c(C)nn1C [Example I-44] | 4.08^[a] |  | 
C#CCOc1cc(F)cc(F)c1Nc1c(-c2ccccc2F)c(C)nn1C [Example I-07] | 2.96^[a] |  | 
C#CCOc1cc(C)ccc1Nc1c(-c2ccc(F)cc2Cl)c(C)nn1C [Example I-53] | 3.83^[a] |  | 
C#CCOc1ccc(-c2c(C)nn(C)c2Nc2c(F)cc(F)cc2OCC#C)c(F)c1 [Example I-26] | 2.88^[a] |  | 
C#CCOc1cc(F)cc(F)c1Nc1c(-c2ccc(F)cc2Br)c(C)nn1C [Example I-42] | 3.33^[a]; | 3.32^[b] | 
C#CCOc1ccc(Nc2c(-c3ccc(Cl)cc3Cl)c(C)nn2C)c(Cl)c1 [Example I-40] | 4.13^[a]; | 4.06^[b]; | 4.00^[c]

Compound | LogP [a] | LogP [b] | LogP [c]
C#CCOc1ccc(F)cc1N=C=S [Z-ii-17] | 3.62^[a] |  | 
C#CCOc1ccc(F)cc1Nc1c(-c2ccc(F)cc2Br)c(C)nn1C [Example I-45] | 3.64^[a] |  | 
C=CCOc1ccccc1Nc1c(-c2ccc(Cl)cc2Cl)c(C)nn1C [Example I-54] | 4.49^[a] |  | 
C=CCOc1cc(F)c(Nc2c(-c3cc(OC)cc(OC)c3)c(C)nn2C)c(F)c1 [Example I-11] | 3.11^[a] |  | 
C#CCOc1ccc(Nc2c(-c3ccc(F)cc3Cl)c(C)nn2C)cc1 [Example I-31] | 3.09^[a]; | 3.06^[b] | 
C#CCOc1cccc(Cl)c1Nc1c(-c2ccc(Cl)cc2Cl)c(C)nn1C [Example I-66] | 3.99^[a] |  | 
C#CCOc1cc(F)c(Nc2c(-c3ccc(F)cc3F)c(C)nn2C)c(F)c1 [Example I-14] | 2.90^[a] |  | 
C=CCOc1cc(F)c(Nc2c(-c3ccc(Cl)cc3Cl)c(C)nn2C)c(F)c1 [Example I-08] | 3.97^[a] |  | 
C=CCOc1cc(F)c(Nc2c(-c3ccc(OC)cc3F)c(C)nn2C)c(F)c1 [Example I-18] | 3.11^[a] |  | 
C#CCOc1ccc(Nc2c(-c3ccc(F)cc3Cl)c(C)nn2C)c(Cl)c1 [Example I-32] | 3.65^[a]; | 3.59^[b] | 
C#CCOc1cccc(Cl)c1Nc1c(-c2ccc(F)cc2F)c(C)nn1C [Example I-67] | 3.26^[a] |  | 
C#CCOc1ccccc1Nc1c(-c2ccc(Cl)cc2Cl)c(C)nn1C [Example I-55] | 3.96^[a] |  | 
C=CCOc1ccc(N=C=S)cc1F [Z-ii-06] | 4.06^[a] |  | 
C#CCOc1cc(F)c(-c2c(C)nn(C)c2Nc2c(F)cc(F)cc2OCC#C)c(F)c1 [Example I-63] | 2.99^[a] |  | 
C#CCOc1ccc(C#N)cc1N=C=S [Z-ii-20] | 3.13^[a] |  | 
C#CCOc1ccccc1Nc1c(-c2ccc(F)cc2Br)c(C)nn1C [Example I-43] | 3.60^[a] |  | 
C=CCOc1ccc(C#N)cc1N=C=S [Z-ii-19] | 3.71^[a] |  | 
C=CCOc1cccc(Cl)c1Nc1c(-c2ccc(F)cc2Cl)c(C)nn1C [Example I-65] | 4.06^[a] |  | 
C#CCOc1cc(F)c(Nc2c(-c3ccc(OC)cc3F)c(C)nn2C)c(F)c1 [Example I-17] | 2.74^[a] |  | 
C#CCOc1cccc(Cl)c1Nc1c(-c2ccc(F)cc2Cl)c(C)nn1C [Example I-64] | 3.56^[a] |  | 
C#CCOc1ccc(N=C=S)c(Cl)c1 [Z-ii-12] | 3.99 | 3.96 | 

Compound | LogP [a] | LogP [b] | LogP [c]
C=CCOc1ccc(F)cc1Nc1c(-c2ccc(Cl)cc2Cl)c(C)nn1C [Example I-56] | 4.49^[a] |  | 
C=CCOc1cc(F)c(N=C=S)cc1F [Z-ii-10] | 4.24^[a] |  | 
C=CCOc1ccc(F)cc1Nc1c(-c2ccc(F)cc2Cl)c(C)nn1C [Example I-50] | 4.01^[a] |  | 
C#CCOc1cc(F)cc(F)c1Nc1c(-c2ccc(OC)cc2F)c(C)nn1C [Example I-19] | 2.86^[a] |  | 
C=CCOc1ccc(N=C=S)cc1 [Z-ii-05] | 4.06 | 4.09 | 
C#CCOc1cc(F)cc(F)c1Nc1c(-c2cc(OC)cc(OC)c2)c(C)nn1C [Example I-12] | 2.85^[a] |  | 
C#CCOc1ccc(-c2c(C)nn(C)c2Nc2c(F)cc(OCC=C)cc2F)c(F)c1 [Example I-28] | 3.13^[a] |  | 
C#CCOc1ccc(N=C=S)cc1F [Z-ii-11] | 3.47^[a] |  | 
C=CCOc1ccc(N=C=S)c(Cl)c1 [Z-ii-13] | 4.72^[a]; 4.72^[b] | 4.72^[a]; 4.72^[b] | 
C#CCOc1ccc(F)cc1Nc1c(-c2ccc(F)cc2Cl)c(C)nn1C [Example I-51] | 3.58^[a] |  | 
C=CCOc1cc(F)c(Nc2c(-c3ccc(F)cc3Cl)c(C)nn2C)c(F)c1 [Example I-02] | 3.54^[a]; |  | 3.40^[c]
C=CCOc1ccc(F)c(N=C=S)c1 [Z-ii-07] | 4.30^[a] |  | 
C#CCOc1cc(F)c(N=C=S)cc1F [Z-ii-09] | 3.64^[a] |  | 
C#CCOc1cc(F)cc(F)c1Nc1c(-c2c(F)cc(OC)cc2F)c(C)nn1C [Example I-61] | 3.00^[a] |  | 
C=CCOc1ccccc1Nc1c(-c2ccc(F)cc2Cl)c(C)nn1C [Example I-48] | 3.99^[a] |  | 
C#CCOc1ccc(-c2c(C)nn(C)c2Nc2c(F)cc(OCC#C)cc2F)c(F)c1 [Example I-27] | 2.77^[a] |  | 
C#CCOc1cc(F)c(N=C=S)c(F)c1 [Z-ii-02] | 3.86^[a] |  | 
C=CCOc1cc(C)ccc1Nc1c(-c2ccc(F)cc2Cl)c(C)nn1C [Example I-52] | 4.32^[a] |  | 
C#CCOc1cc(F)c(Nc2c(-c3ccc(OCC=C)cc3F)c(C)nn2C)c(F)c1 [Example I-24] | 3.17^[a] |  | 
C#CCOc1ccc(F)c(N=C=S)c1 [Z-ii-08] | 3.62^[a] |  | 

Same assay, conditions: LC-UV, acidic range, 0.1% formic acid in water and acetonitrile as eluent; read-out: LogP [a]

Compound | chromatographic logP
C=CCOc1ccc(CC(C)=O)c(F)c1 [Z-iv-01, 1-[4-(allyloxy)-2-fluorophenyl]acetone] | 2.6
CC(=O)Cc1ccc(O)cc1F [1-(2-fluoro-4-hydroxyphenyl)acetone] | 1.13
C#CCOc1cc(F)cc(F)c1N=C=S [Z-ii-03, 3,5-difluoro-2-isothiocyanatophenyl prop-2-yn-1-yl ether] | 3.68

Same assay, conditions: pH 2.3; read-out: log P (pH 2.3)

Compound | chromatographic logP
C#CCOc1cc(F)cc(F)c1N=C=S [Z-ii-03, 3,5-difluoro-2-isothiocyanatophenyl prop-2-yn-1-yl ether] | 3.72
